Assay results taken from patent US20250213451A1, “AN ORAL CARE COMPOSITION COMPRISING A GLYCOLIPID AND A MILD SURFACTANT” (priority 2021, published 2025).

Test system: oral tissue cells based on EpiOral Tissue Model
Experiment: Oral irritation evaluation, EpiOral Tissue Model
Assay type: cell-based
Procedure: The oral irritation evaluation was conducted to test the surfactant mildness and oral irritation. The test sample solution was prepared in aqueous solution with 1% active content at pH of 7. The test sample solutions were applied to the oral tissue cells based on EpiOral Tissue Model provided by Mattek Corp. The viability of the cells over time was measured and used to calculate the time of exposure until viability is reduced to 50%, which is indicated by ET-50.

PEG-12 [Pluracare ® E-600]
Oral Irritation Classification (pH 7): None to minimal irritation

Cocamidopropyl Betaine [Dehyton ® PK 45]
ET-50 based on EpiOral Model (pH 7): 181.0 min | Oral Irritation Classification (pH 7): Mildly irritation

CCCCCCCCCCCCOS(=O)(=O)[O-].[Na+] [Texapon ® OC-N, Sodium Lauryl Sulfate]
Oral Irritation Classification (aqueous solution with 1% active content at pH of 7, class from ET-50): Moderately irritation | ET-50 based on EpiOral Model (aqueous solution with 1% active content at pH of 7, time of exposure until viability is reduced to 50%): 116.7 min
